Data as given in PubChem BioAssay (NCI).
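Where inhibition never reached the appropriate level, the endpoint shown equals the highest concentration tested. Otherwise, values were interpolated linearly from a five-concentration, 48-hour dose response in 96-well plates. Here, GI50 denotes the concentration required for 50% inhibition of growth. TGI is the concentration that stops growth completely.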

Tests used:
Experiment in all cases: NCI anticancer screen, dose series, 48 h
NCI-H23 lung = tested on: NCI-H23 lung
HL-60(TB) leukemia = tested on: HL-60(TB) leukemia
TK-10 renal = tested on: TK-10 renal
SW-620 colon = tested on: SW-620 colon
OVCAR-3 ovarian = tested on: OVCAR-3 ovarian
A549 NSCLC = tested on: A549 NSCLC
SF-268 CNS = tested on: SF-268 CNS
SK-MEL-28 melanoma = tested on: SK-MEL-28 melanoma

SMILES: CC(=O)Nc1ccc(S(=O)(=O)N2C(=O)CCC2C(=O)Nc2ccc(Br)cc2)cc1 (configuration not stated)
- GI50 (NCI-H23 lung): 1.83 µM
- TGI (NCI-H23 lung): 16.6 µM
- GI50 (HL-60(TB) leukemia): 3.1 µM
- TGI (HL-60(TB) leukemia): 19 µM
- GI50 (TK-10 renal): 4.49 µM
- TGI (TK-10 renal): 15.4 µM
- GI50 (SW-620 colon): 3.19 µM
- TGI (SW-620 colon): 27.6 µM
- GI50 (OVCAR-3 ovarian): 2.03 µM
- TGI (OVCAR-3 ovarian): 7.47 µM
- GI50 (A549 NSCLC): 1.6 µM
- TGI (A549 NSCLC): 13.4 µM
- GI50 (SF-268 CNS): 2.76 µM
- TGI (SF-268 CNS): 21.9 µM
- GI50 (SK-MEL-28 melanoma): 3.49 µM
- TGI (SK-MEL-28 melanoma): 20.9 µM

SMILES: COc1ccc(/C=C\[N+](=O)[O-])cc1OC
- GI50 (NCI-H23 lung): 2.24 µM
- TGI (NCI-H23 lung): 6.52 µM
- GI50 (HL-60(TB) leukemia): 2.94 µM
- TGI (HL-60(TB) leukemia): 7.79 µM
- GI50 (TK-10 renal): 3.55 µM
- TGI (TK-10 renal): 15.7 µM
- GI50 (SW-620 colon): 1.9 µM
- TGI (SW-620 colon): 4.9 µM
- GI50 (OVCAR-3 ovarian): 3 µM
- TGI (OVCAR-3 ovarian): 8.73 µM
- GI50 (A549 NSCLC): 1.94 µM
- TGI (A549 NSCLC): 4.97 µM
- GI50 (SF-268 CNS): 5.88 µM
- TGI (SF-268 CNS): 20.5 µM
- GI50 (SK-MEL-28 melanoma): 3.53 µM
- TGI (SK-MEL-28 melanoma): 13 µM

SMILES: CCCCC#CC1=C(Br)C(=O)OC1
- GI50 (NCI-H23 lung): 1.5 µM
- TGI (NCI-H23 lung): 9.23 µM
- GI50 (HL-60(TB) leukemia): 0.249 µM
- TGI (HL-60(TB) leukemia): > 100 µM
- GI50 (TK-10 renal): 1.8 µM
- TGI (TK-10 renal): 4.53 µM
- GI50 (SW-620 colon): 0.0237 µM
- TGI (SW-620 colon): 0.21 µM
- GI50 (OVCAR-3 ovarian): 0.453 µM
- TGI (OVCAR-3 ovarian): 2.27 µM
- GI50 (A549 NSCLC): 17.2 µM
- TGI (A549 NSCLC): 43.4 µM
- GI50 (SF-268 CNS): 2.47 µM
- TGI (SF-268 CNS): 10.2 µM
- GI50 (SK-MEL-28 melanoma): 3.48 µM
- TGI (SK-MEL-28 melanoma): 16.4 µM

SMILES: COC(=O)c1ccc2c(c1)nc(NC(=O)c1ccccc1)n2CCCc1ccccc1
- GI50 (NCI-H23 lung): 5.26 µM
- TGI (NCI-H23 lung): > 100 µM
- GI50 (HL-60(TB) leukemia): 4.5 µM
- TGI (HL-60(TB) leukemia): > 100 µM
- GI50 (TK-10 renal): 8.86 µM
- TGI (TK-10 renal): > 100 µM
- GI50 (SW-620 colon): 4.03 µM
- TGI (SW-620 colon): > 100 µM
- GI50 (OVCAR-3 ovarian): 7.29 µM
- TGI (OVCAR-3 ovarian): > 100 µM
- GI50 (A549 NSCLC): 3.6 µM
- TGI (A549 NSCLC): > 100 µM
- GI50 (SF-268 CNS): 3.93 µM
- TGI (SF-268 CNS): > 100 µM
- GI50 (SK-MEL-28 melanoma): 3.79 µM
- TGI (SK-MEL-28 melanoma): > 100 µM

SMILES: Nc1nn2cc(F)cnc2c1C(=O)Nc1cncc(F)c1N1CCC(C(=O)N2CCN(C3COC3)CC2)CC1
- GI50 (NCI-H23 lung): 0.0606 µM
- TGI (NCI-H23 lung): 0.498 µM
- GI50 (HL-60(TB) leukemia): 0.129 µM
- TGI (HL-60(TB) leukemia): 0.465 µM
- GI50 (TK-10 renal): 0.888 µM
- TGI (TK-10 renal): > 69.9 µM
- GI50 (SW-620 colon): 1.51 µM
- TGI (SW-620 colon): > 100 µM
- GI50 (OVCAR-3 ovarian): 0.854 µM
- TGI (OVCAR-3 ovarian): 26 µM
- GI50 (A549 NSCLC): 0.266 µM
- TGI (A549 NSCLC): > 100 µM
- GI50 (SF-268 CNS): 1.33 µM
- TGI (SF-268 CNS): > 100 µM
- GI50 (SK-MEL-28 melanoma): 2.95 µM
- TGI (SK-MEL-28 melanoma): > 100 µM

SMILES: COc1cccc(CC(C)=C(c2ccc(OCCN(C)C)cc2)c2ccc(OCCN(C)C)cc2)c1
- GI50 (NCI-H23 lung): 4.42 µM
- TGI (NCI-H23 lung): 9.24 µM
- GI50 (HL-60(TB) leukemia): 0.667 µM
- TGI (HL-60(TB) leukemia): 1.34 µM
- GI50 (TK-10 renal): 5.43 µM
- TGI (TK-10 renal): 10.3 µM
- GI50 (SW-620 colon): 0.735 µM
- TGI (SW-620 colon): 1.82 µM
- GI50 (OVCAR-3 ovarian): 1.18 µM
- TGI (OVCAR-3 ovarian): 3.42 µM
- GI50 (A549 NSCLC): 3.59 µM
- TGI (A549 NSCLC): 8.25 µM
- GI50 (SF-268 CNS): 4.03 µM
- TGI (SF-268 CNS): 8.69 µM
- GI50 (SK-MEL-28 melanoma): 0.602 µM
- TGI (SK-MEL-28 melanoma): 1.1 µM

SMILES: Cn1c(I)c(C#CCO[Si](C)(C)C(C)(C)C)c(=O)[nH]c1=O
- GI50 (NCI-H23 lung): 19.3 µM
- TGI (NCI-H23 lung): 39.5 µM
- GI50 (HL-60(TB) leukemia): 2.43 µM
- TGI (HL-60(TB) leukemia): 4.83 µM
- GI50 (TK-10 renal): 16.3 µM
- TGI (TK-10 renal): 30.2 µM
- GI50 (SW-620 colon): 1.96 µM
- TGI (SW-620 colon): 4.14 µM
- GI50 (OVCAR-3 ovarian): 6.49 µM
- TGI (OVCAR-3 ovarian): 16.2 µM
- GI50 (A549 NSCLC): > 100 µM
- TGI (A549 NSCLC): > 100 µM
- GI50 (SF-268 CNS): 15.9 µM
- TGI (SF-268 CNS): 30.2 µM
- GI50 (SK-MEL-28 melanoma): 2.95 µM
- TGI (SK-MEL-28 melanoma): 9.05 µM
